Residue numbers refer to the chain shown, from its start.
Assays:
rP2X4R I209A mutant = biological target: T1, rP2X4R I209A mutant (Rattus norvegicus, UniProt P51577, I209A); assay: whole-cell patch clamp, HEK293T cells expressing mutant; type: cell-based
T1 construct: expressed in transfected cells; host or cells: HEK293T
T1 sequence (P51577 1-388 I209A): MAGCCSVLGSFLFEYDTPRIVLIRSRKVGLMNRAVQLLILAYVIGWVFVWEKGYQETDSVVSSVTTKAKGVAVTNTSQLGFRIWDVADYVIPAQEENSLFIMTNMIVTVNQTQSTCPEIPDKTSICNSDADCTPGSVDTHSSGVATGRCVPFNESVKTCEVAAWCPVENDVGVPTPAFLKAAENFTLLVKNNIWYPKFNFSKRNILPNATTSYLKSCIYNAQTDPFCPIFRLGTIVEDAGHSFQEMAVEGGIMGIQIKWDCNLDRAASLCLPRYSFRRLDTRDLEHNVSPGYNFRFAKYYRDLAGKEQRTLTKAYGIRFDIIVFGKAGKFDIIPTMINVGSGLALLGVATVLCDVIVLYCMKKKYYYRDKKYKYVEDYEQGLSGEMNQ

rP2X4R N287A mutant = biological target: T2, rP2X4R N287A mutant (Rattus norvegicus, UniProt P51577, N287A); assay: as above; type: cell-based
T2 construct: expressed in transfected cells; host or cells: HEK293T
T2 sequence (P51577 1-388 N287A): T1 sequence (P51577 1-388 I209A) with A209I, N287A

P2X1R P287C = system: P2X1R P287C; parameters: method as in PMID 17428985; key: n.f.: non-functional mutants; ↑: mutant with significant increased EC50 in comparison to WT (values represent fold increase); ≈: close to WT receptor; D: affected time-constant of the desensitizing current response; conditions: cited from earlier work
P2X1R G288A = system: P2X1R G288A; parameters: key: n.f.: non-functional mutants; ↑: mutant with significant increased EC50 in comparison to WT (values represent fold increase); ≈: close to WT receptor; D: affected time-constant of the desensitizing current response; conditions: cited from earlier work
[1] = 100 µM ATP 60 s, biexponential fit
[2] = contribution of τdes2, 100 µM ATP 60 s
[3] = decay after removal of 1 or 3 µM ATP, 3 µM IVM
[4] = naïve receptors, 2–5 s application
[5] = 3 µM IVM 4-6 min vs IVM-untreated

| Compound | τdes1 (rP2X4R I209A mutant; [1]) | τdes2 (rP2X4R I209A mutant; [1]) | Imax (rP2X4R I209A mutant; 100–1000 µM ATP) | Imax+IVM (rP2X4R I209A mutant; ATP after 3 µM IVM 4-6 min) | A2 /(A1+A2) (rP2X4R I209A mutant; [2]) | τoff +IVM (rP2X4R I209A mutant; [3]) | EC50 (rP2X4R I209A mutant; [4]) | τdes (rP2X4R I209A mutant; weighted, 100 µM ATP 60 s) | τdes1 (rP2X4R N287A mutant; [1]) | τdes2 (rP2X4R N287A mutant; [1]) | Imax (rP2X4R N287A mutant; 100–1000 µM ATP) | Imax+IVM (rP2X4R N287A mutant; ATP after 3 µM IVM 4-6 min) | A2 /(A1+A2) (rP2X4R N287A mutant; [2]) | τoff +IVM (rP2X4R N287A mutant; [3]) | EC50 (rP2X4R N287A mutant; [4]) | τdes (rP2X4R N287A mutant; weighted, 100 µM ATP 60 s) | change in EC50 for ATP (P2X1R P287C) | change in EC50 for ATP (P2X1R G288A) | Fold incr. Imax (rP2X4R I209A mutant; [5]) | Fold incr. Imax (rP2X4R N287A mutant; [5]) |
| --- | --- | --- | --- | --- | --- | --- | --- | --- | --- | --- | --- | --- | --- | --- | --- | --- | --- | --- | --- | --- |
| Nc1ncnc2c1ncn2[C@@H]1O[C@H](COP(=O)(O)OP(=O)(O)OP(=O)(O)O)[C@@H](O)[C@H]1O [ATP] | 2.1 ± 0.8 s | 9.3 ± 2.6 s | 1.9 ± 0.4 nA | 4.1 ± 0.8 nA | 70 ± 2% | 22 ± 3.0 s | 4.3 ± 2.1 µM | 6.3 ± 0.2 s | 1.6 ± 0.1 s | 10.2 ± 3.0 s | 1.6 ±0.2 nA | 4.0 ± 0.6 nA | 75 ± 16% | 16 ± 2.5 s | 3.2 ± 1 µM | 7.1 ± 0.5 s | P287C: ≈[9] | ≈ | – | – |
| CC[C@H](C)[C@H]1O[C@]2(CC[C@@H]1C)C[C@@H]1C[C@@H](C/C=C(\C)[C@@H](O[C@H]3C[C@H](OC)[C@@H](O[C@H]4C[C@H](OC)[C@@H](O)[C@H](C)O4)[C@H](C)O3)[C@@H](C)/C=C/C=C3\CO[C@@H]4[C@H](O)C(C)=C[C@@H](C(=O)O1)[C@]34O)O2 [IVM, ivermectin] | – | – | – | – | – | – | – | – | – | – | – | – | – | – | – | – | – | – | 2.1 ± 0.3 fold | 3.3 ± 0.4 fold |

Reference: PMC4232510, “Identification of Functionally Important Residues of the Rat P2X4 Receptor by Alanine Scanning Mutagenesis of the Dorsal Fin and Left Flipper Domains” (PLoS ONE, 2014)
